Results reported in patent US20250049827A1, “A PHARMACEUTICAL COMPOSITION FOR THE TREATMENT OF OTIC INFECTIONS” (Intervet Inc., priority 2021, published 2025).
Read-outs that look alike come from different tables or passages of the source.

How the values were obtained:
[1] = tested on: gentamicin resistant Pseudomonas aeruginosa; details: MIC studies performed in the US; cited from earlier work
[2] = Pilot ear depletion study: gentamicin concentration in ear wax; format: in vivo
Experimental: An ear depletion study was performed to assess gentamicin concentration in ear wax. It was determined that the gentamicin concentrations detected in the ear wax were high enough to be effective against gentamicin resistant Pseudomonas aeruginosa.

[3] = cited from earlier work

| Compound | highest MIC [1] | Total Gentamicin Concentration (mg/g) [Mean ± STD] ([2]; 24 hours post dose, Left ear) | Total Gentamicin Concentration (mg/g) [Mean ± STD] ([2]; 24 hours post dose, Right ear) | Total Gentamicin Concentration (mg/g) [Mean ± STD] ([2]; 72 hours post dose, Left ear) | Total Gentamicin Concentration (mg/g) [Mean ± STD] ([2]; 72 hours post dose, Right ear) | Total Gentamicin Concentration (mg/g) [Mean ± STD] ([2]; 168 hours post dose, Left ear) | Total Gentamicin Concentration (mg/g) [Mean ± STD] ([2]; 168 hours post dose, Right ear) | Total Gentamicin Concentration (mg/g) [Mean ± STD] ([2]; 240 hours post dose, Left ear) | Total Gentamicin Concentration (mg/g) [Mean ± STD] ([2]; 240 hours post dose, Right ear) | Total Gentamicin Concentration (mg/g) [Mean ± STD] ([2]; 336 hours post dose, Left ear) | Total Gentamicin Concentration (mg/g) [Mean ± STD] ([2]; 336 hours post dose, Right ear) | solubility ([3]; in acetone and chloroform) | solubility ([3]; in methanol, ethanol, and isopropanol) | solubility ([3]; in tetrahydro furan) | solubility ([3]; in water) |
| --- | --- | --- | --- | --- | --- | --- | --- | --- | --- | --- | --- | --- | --- | --- | --- |
| Gentamicin | 64 µg/mL | 11.51 ± 8.68 mg/g | 11.96 ± 10.11 mg/g | 8.15 ± 2.94 mg/g | 8.66 ± 5.00 mg/g | 3.78 ± 1.55 mg/g | 3.97 ± 3.38 mg/g | 1.87 ± 1.49 mg/g | 2.29 ± 1.36 mg/g | 1.46 ± 2.08 mg/g | 2.25 ± 2.44 mg/g | – | – | – | – |
| C[C@@H]1C[C@H]2[C@@H]3CCC4=CC(=O)C=C[C@]4(C)[C@@]3(Cl)[C@@H](O)C[C@]2(C)[C@@]1(OC(=O)c1ccco1)C(=O)CCl [Mometasone Furoate, 9,21-Dichloro-1 1 (beta), 17-dihydroxy-16 (alpha)-methylpregna-1,4-diene-3,20-dione 17-(2 Furoate)] | – | – | – | – | – | – | – | – | – | – | – | soluble | slightly soluble | freely soluble | practically insoluble |
